Measurements published in PubChem BioAssay AID1963962 (Molecular Pharmacology Branch, DTP, NCI, 2024).

System: 967376-340-R-J2-PDC multicell spheroid viability
Assay: Anticancer human tumor 967376-340-R-J2-PDC patient-derived colon adenocarcinoma cell line growth inhibition [PI3K]
Conditions: for IC50: curve of first compound; for viability, T/C: stronger effect = lower value
Method in brief: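 Viability of mixed-cell spheroids was determined after exposure to pairwise combinations, one partner being inavolisib, alpelisib, duvelisib or copanlisib. Highest tested concentration matched clinical Cmax where known and 10 microM where not, descending in half-log steps.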

[1] = second compound 0.0316 µM, first compound 0.000316 µM
[2] = second compound 0.0316 µM, first compound 0.001 µM
[3] = second compound 0.0316 µM, first compound 0.00316 µM
[4] = second compound 0.0316 µM, first compound 0.01 µM
[5] = second compound 0.0316 µM, first compound 0.0316 µM
[6] = second compound 0.0316 µM, first compound 0.1 µM
[7] = second compound 0.1 µM, first compound 0.000316 µM
[8] = second compound 0.1 µM, first compound 0.001 µM
[9] = second compound 0.1 µM, first compound 0.00316 µM
[10] = second compound 0.1 µM, first compound 0.01 µM
[11] = second compound 0.1 µM, first compound 0.0316 µM
[12] = second compound 0.1 µM, first compound 0.1 µM
[13] = second compound 0.316 µM, first compound 0.000316 µM
[14] = second compound 0.316 µM, first compound 0.001 µM
[15] = second compound 0.316 µM, first compound 0.00316 µM
[16] = second compound 0.316 µM, first compound 0.01 µM
[17] = second compound 0.316 µM, first compound 0.0316 µM
[18] = second compound 0.316 µM, first compound 0.1 µM
[19] = second compound 1 µM, first compound 0.000316 µM
[20] = second compound 1 µM, first compound 0.001 µM
[21] = second compound 1 µM, first compound 0.00316 µM
[22] = second compound 1 µM, first compound 0.01 µM
[23] = second compound 1 µM, first compound 0.0316 µM
[24] = second compound 1 µM, first compound 0.1 µM
[25] = second compound 3.16 µM, first compound 0.000316 µM
[26] = second compound 3.16 µM, first compound 0.001 µM
[27] = second compound 3.16 µM, first compound 0.00316 µM
[28] = second compound 3.16 µM, first compound 0.01 µM
[29] = second compound 3.16 µM, first compound 0.0316 µM
[30] = second compound 3.16 µM, first compound 0.1 µM
[31] = second compound 10 µM, first compound 0.000316 µM
[32] = second compound 10 µM, first compound 0.001 µM
[33] = second compound 10 µM, first compound 0.00316 µM
[34] = second compound 10 µM, first compound 0.01 µM
[35] = second compound 10 µM, first compound 0.0316 µM
[36] = second compound 10 µM, first compound 0.1 µM
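Note: spheroids exposed to agents for 7 days before read-out.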
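Throughout, for viability, T/C: luminescence used as surrogate of cell viability.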

CC(=O)c1c(C)c2cnc(Nc3ccc(N4CCNCC4)cn3)nc2n(C2CCCC2)c1=O + CC(Nc1ncnc2nc[nH]c12)c1cc2cccc(Cl)c2c(=O)n1-c1ccccc1 showed an IC50 (second compound 0.0316 µM) of over 100 nM, an IC50 (second compound 0.1 µM) of over 100 nM and an IC50 (second compound 0.316 µM) of over 100 nM. The IC50 (second compound 1 µM) was over 100 nM, the IC50 (second compound 3.16 µM) was over 100 nM and the IC50 (second compound 10 µM) was over 100 nM. It also gave a viability, T/C [1] of 81.1%, a viability, T/C [2] of 101% and a viability, T/C [3] of 92.2%. It also gave a viability, T/C [4] of 92.7%, a viability, T/C [5] of 79.9% and a viability, T/C [6] of 82.6%. The viability, T/C [7] was 114%, the viability, T/C [8] was 89.4% and the viability, T/C [9] was 101%. For the same compound, the viability, T/C [10] was 89.4%, the viability, T/C [11] was 84.4% and the viability, T/C [12] was 83.8%. For the same compound, the viability, T/C [13] was 101%, the viability, T/C [14] was 96% and the viability, T/C [15] was 113%. It also gave a viability, T/C [16] of 97%, a viability, T/C [17] of 79.3% and a viability, T/C [18] of 78.6%. The viability, T/C [19] was 90%, the viability, T/C [20] was 103% and the viability, T/C [21] was 91%. It also gave a viability, T/C [22] of 80.3%, a viability, T/C [23] of 98.6% and a viability, T/C [24] of 88.2%. For the same compound, the viability, T/C [25] was 89.6%, the viability, T/C [26] was 109% and the viability, T/C [27] was 95.1%. For the same compound, the viability, T/C [28] was 90.3%, the viability, T/C [29] was 84.1% and the viability, T/C [30] was 63.9%. The viability, T/C [31] was 83.5%, the viability, T/C [32] was 89.5% and the viability, T/C [33] was 81.3%. For the same compound, the viability, T/C [34] was 88%, the viability, T/C [35] was 87.5% and the viability, T/C [36] was 86.9%.

CC(C)n1nc(-c2ccc3oc(N)nc3c2)c2c(N)ncnc21 + CC(Nc1ncnc2nc[nH]c12)c1cc2cccc(Cl)c2c(=O)n1-c1ccccc1 showed an IC50 (second compound 0.0316 µM) of over 100 nM, an IC50 (second compound 0.1 µM) of over 100 nM and an IC50 (second compound 0.316 µM) of over 100 nM. The IC50 (second compound 1 µM) was over 100 nM, the IC50 (second compound 3.16 µM) was over 100 nM and the IC50 (second compound 10 µM) was over 100 nM. The viability, T/C [1] was 109%, the viability, T/C [2] was 92.2% and the viability, T/C [3] was 96.6%. It also gave a viability, T/C [4] of 98.6%, a viability, T/C [5] of 97.5% and a viability, T/C [6] of 59.1%. For the same compound, the viability, T/C [7] was 90.1%, the viability, T/C [8] was 94.5% and the viability, T/C [9] was 90.6%. It also gave a viability, T/C [10] of 103%, a viability, T/C [11] of 80.8% and a viability, T/C [12] of 69.9%. For the same compound, the viability, T/C [13] was 113%, the viability, T/C [14] was 104% and the viability, T/C [15] was 99.9%. It also gave a viability, T/C [16] of 98.5%, a viability, T/C [17] of 77% and a viability, T/C [18] of 54.7%. It also gave a viability, T/C [19] of 124%, a viability, T/C [20] of 97% and a viability, T/C [21] of 89.9%. It also gave a viability, T/C [22] of 90.1%, a viability, T/C [23] of 71% and a viability, T/C [24] of 53%. The viability, T/C [25] was 101%, the viability, T/C [26] was 94.3% and the viability, T/C [27] was 93.9%. For the same compound, the viability, T/C [28] was 80.4%, the viability, T/C [29] was 81.3% and the viability, T/C [30] was 62.2%. It also gave a viability, T/C [31] of 93%, a viability, T/C [32] of 81.4% and a viability, T/C [33] of 76.7%. The viability, T/C [34] was 88%, the viability, T/C [35] was 73.3% and the viability, T/C [36] was 61.3%.
